Reference: BindingDB's records for PubMed 2156866 (Nagoya University School of Medicine, 1990)

How the values were obtained:
Assay in all cases: Enzyme Assay
Settings in all cases: 30 °C
[1] = molecular target: Calcium/calmodulin-dependent protein kinase type II subunit beta (Homo sapiens, UniProt Q13554)
Text: (§1) Protein kinase C, cAMP dependent protein kinase, cGMP dependent protein kinase and myosin light chain kinase activity were measure under conditions described by Hidaka. Casein kinases I and II activities were meas8ured as described by Chijiwa. Ca/ calmodulin kinase II activity was measure d by the method described by McGuinness.

[2] = molecular target: T1, cGMP-dependent protein kinase 1 (Homo sapiens, UniProt Q13976)
T1 sequence (Q13976 whole entry): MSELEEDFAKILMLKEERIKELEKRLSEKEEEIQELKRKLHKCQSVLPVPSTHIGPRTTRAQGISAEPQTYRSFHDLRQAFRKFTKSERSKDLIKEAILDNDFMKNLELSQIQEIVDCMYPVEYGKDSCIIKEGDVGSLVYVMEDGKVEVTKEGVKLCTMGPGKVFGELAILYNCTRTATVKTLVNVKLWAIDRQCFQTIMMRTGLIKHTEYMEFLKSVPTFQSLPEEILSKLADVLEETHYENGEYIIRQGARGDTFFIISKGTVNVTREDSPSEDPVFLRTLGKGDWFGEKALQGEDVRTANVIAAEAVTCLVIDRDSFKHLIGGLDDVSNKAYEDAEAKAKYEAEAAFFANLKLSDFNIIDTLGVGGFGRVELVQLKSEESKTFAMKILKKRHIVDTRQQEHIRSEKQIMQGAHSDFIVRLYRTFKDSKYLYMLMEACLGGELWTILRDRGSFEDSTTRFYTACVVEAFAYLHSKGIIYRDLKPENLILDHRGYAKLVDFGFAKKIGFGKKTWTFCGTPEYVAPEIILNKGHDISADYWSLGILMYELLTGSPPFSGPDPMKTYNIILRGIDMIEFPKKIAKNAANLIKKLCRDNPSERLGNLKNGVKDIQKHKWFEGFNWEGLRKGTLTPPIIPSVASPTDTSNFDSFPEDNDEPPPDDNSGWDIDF
Text: as §1

[3] = molecular target: Casein kinase I isoform alpha (Homo sapiens, UniProt P48729)
Casein kinase I isoform alpha, sequence (P48729 whole entry, canonical isoform): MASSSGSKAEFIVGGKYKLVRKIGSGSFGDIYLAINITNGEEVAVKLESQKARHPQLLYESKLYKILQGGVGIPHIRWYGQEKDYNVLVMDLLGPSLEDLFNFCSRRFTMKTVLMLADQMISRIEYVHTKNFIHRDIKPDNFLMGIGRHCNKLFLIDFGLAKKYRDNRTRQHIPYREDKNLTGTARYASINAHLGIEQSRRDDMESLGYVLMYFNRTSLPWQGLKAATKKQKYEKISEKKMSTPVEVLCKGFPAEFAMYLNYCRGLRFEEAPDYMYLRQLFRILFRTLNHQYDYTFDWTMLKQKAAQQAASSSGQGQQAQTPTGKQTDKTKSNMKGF
Text: as §1

[4] = molecular target: cAMP-dependent protein kinase catalytic subunit alpha (Homo sapiens, UniProt P17612)
Text: as §1

[5] = molecular target: Protein kinase C alpha type (Homo sapiens, UniProt P17252)
Text: as §1

[6] = molecular target: Casein kinase II subunit alpha (Homo sapiens, UniProt P68400)
Casein kinase II subunit alpha, sequence (P68400 whole entry): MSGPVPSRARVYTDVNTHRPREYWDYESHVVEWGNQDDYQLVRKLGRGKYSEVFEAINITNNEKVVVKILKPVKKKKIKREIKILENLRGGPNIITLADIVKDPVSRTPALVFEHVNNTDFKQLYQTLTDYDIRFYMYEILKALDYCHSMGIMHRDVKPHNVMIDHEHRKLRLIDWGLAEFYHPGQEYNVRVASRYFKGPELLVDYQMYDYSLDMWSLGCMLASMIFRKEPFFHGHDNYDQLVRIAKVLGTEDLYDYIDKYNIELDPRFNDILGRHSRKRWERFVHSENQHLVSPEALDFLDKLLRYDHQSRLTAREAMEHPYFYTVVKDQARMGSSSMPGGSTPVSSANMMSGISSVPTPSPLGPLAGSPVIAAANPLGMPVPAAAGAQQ
Text: as §1

Calcium/calmodulin-dependent protein kinase type II subunit beta, sequence (Q13554 whole entry): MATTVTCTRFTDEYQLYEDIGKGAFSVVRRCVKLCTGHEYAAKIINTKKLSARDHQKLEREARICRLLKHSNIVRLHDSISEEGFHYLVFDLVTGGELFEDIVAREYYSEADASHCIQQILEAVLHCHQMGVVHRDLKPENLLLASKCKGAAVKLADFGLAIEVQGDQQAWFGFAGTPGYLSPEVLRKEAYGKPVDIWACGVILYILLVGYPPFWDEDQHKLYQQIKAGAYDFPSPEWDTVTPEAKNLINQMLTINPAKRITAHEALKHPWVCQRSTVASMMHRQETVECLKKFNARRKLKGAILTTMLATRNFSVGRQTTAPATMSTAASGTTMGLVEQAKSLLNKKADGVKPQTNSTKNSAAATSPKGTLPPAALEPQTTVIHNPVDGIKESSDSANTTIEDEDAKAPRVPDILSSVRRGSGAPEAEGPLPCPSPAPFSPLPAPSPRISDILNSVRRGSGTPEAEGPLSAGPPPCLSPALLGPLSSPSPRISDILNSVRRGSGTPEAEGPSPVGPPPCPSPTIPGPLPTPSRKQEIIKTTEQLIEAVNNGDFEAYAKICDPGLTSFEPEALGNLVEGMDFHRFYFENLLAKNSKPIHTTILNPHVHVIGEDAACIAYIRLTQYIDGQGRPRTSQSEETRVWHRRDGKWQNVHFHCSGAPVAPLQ

| Ki [1] | Ki [2] | Ki [3] | Ki [4] | Ki [5] | Ki [6] | SMILES |
| --- | --- | --- | --- | --- | --- | --- |
| 29.7 µM | 0.48 µM |  |  |  |  | O=S(=O)(NCCNC/C=C/c1ccc(Br)cc1)c1cccc2cnccc12 |
| 71.3 µM | 0.76 µM | 60.7 µM | 0.36 µM | 75.7 µM | 104 µM | O=S(=O)(NCCNC/C=C/c1ccccc1)c1cccc2cnccc12 [H-88] |
